Test results published in patent publication US20060189519A1, “Anti-angiogenic fragments fo pigment epithelium-derived factor (pedf)” (priority 2002, published 2006).

Experiments:
[1] = test system: Microvascular endothelial cells (HMVECs); assay: VEGF-induced endothelial cell chemotaxis/migration assay (Boyden chamber); type: cell-based, human; details: at 100 nM (44-mer: 100 nM or higher)
Description: FIG. 3. In vitro anti-angiogenic activity by […] and 44-mer PEDF peptides. Microvascular endothelial cells (HMVECs) chemotaxis up the gradient of pro-angiogenic VEGF was examined in the presence of the 44-mer or 34-mer. FIG. 3A Recombinant PEDF (rPEDF, BH) (10 nM), 34-mer (1 μM) and 44-mer (1 μM) were tested alone (empty bars), or in the presence of VEGF (hatched bars). Anti-PEDF neutralizing antibodies were added where shown (filled bars). FIG. 3B 34-mer (●) and 44-mer (♦) were tested with VEGF (100 pg/ml) at increasing concentrations. ED50 was determined using regression curves.
Two large peptides from PEDF, a “34-mer” (amino acids 24-57 of SEQ ID NO:1) and a “44-mer” (residues 58-101 of SEQ ID NO:1), were tested for their ability to block angiogenesis. […] (Alberdi et al., 1999) In the anti-angiogenesis assays, only the 34-mer inhibited VEGF-induced angiogenesis in vitro. Anti-angiogenic activity of the 34-mer peptide was blocked with neutralizing antibodies effective against the whole molecule.
HUVEC migration assay are performed as previously described (Good et al., PNAS, 1990). […] Then, the stained membranes are dried, mounted, and the cells migrated to the top part of membrane counted in 10 high-powered (400×) fields. […]

HUVECs = assay: Endothelial cell apoptosis assay (TUNEL, ApopTag); type: cell-based, human; details: for induction of endothelial cell apoptosis: in vitro, low serum (0.2%)
Description: FIG. 5. Endothelial cell apoptosis induced by TGA and ERT-L PEDF peptides. 90% confluent HUVECs were treated with increasing concentrations of TGA (FIG. 5A) or ERT-L (FIG. 5B). Apoptotic cells were detected with ApopTag assay kit (Intergen) and percent of TUNEL positive cells calculated.
Apoptosis by PEDF and by the 34-mer were mediated by the same signaling events including activation of JNK-1. Apoptosis by both PEDF and by its 34-mer fragment were abolished in the presence of JNK-1 specific inhibitor SP600125 (BioMol). […] The 44-mer had no activity.
Cells were plated on gelatinized glass cover slips in 24-well tissue culture plates at 5×10^4 cells/well, treated with indicated compounds in low serum (0.2%), fixed in 1% buffered paraformaldehyde, stained using the ApopTag in situ cell death detection kit according to the manufacturer's instructions (Serologicals corporation) and counterstained with propidium iodide. The percentage of terminal deoxynucleotidyl transferase-mediated dUTP nick end labeling (TUNEL)-positive cells was calculated as the number of TUNEL-positive cells (counted in 2-6 randomly selected fields from two different chambers) divided by the total number of cells. 600-1200 cells were scored for each treatment.
Human umbilical vein endothelial cells (HUVEC, NCI) were grown to 90% confluence and treated with peptides overnight in low (0.2%) serum. Apoptotic cells were detected using TUNEL assay kit (InterGene) and percent apoptotic cells were calculated (FIG. 5).

[2] = test system: Y-79 retinoblastoma cells; details: previously shown (Alberdi et al., 1999); cited from earlier work
[3] = test system: bFGF-induced corneal angiogenesis; assay: Mouse corneal neovascularization assay (bFGF pellet); type: in vivo; details: for Positive comeas/total: bFGF 50 ng/pellet, day 5 after implantation; for effect on mouse corneal neovascularization in vivo: bFGF pellet, peptides at 10 and 100 μM
Description: Angiogenesis was induced in the mouse cornea by implanting slow release pellets containing bFGF (50 ng/pellet). Peptides at 10 and 100 μM were added where indicated. Angiogenesis was observed on day 5 after implantation and a vigorous ingrowth of the blood vessels reaching the pellet was scored as a positive response. The peptide abbreviations are as above; PBS is phosphate buffer solution.

[4] = test system: endothelial cells (HUVEC); assay: Endothelial cell migration up the gradient of pro-angiogenic bFGF; type: cell-based, human
Description: HUVEC migration assay are performed as previously described (Good et al., PNAS, 1990). The cells are starved overnight in MCDB131 medium supplemented with 0.1% bovine serum albumin (BSA, Sigma) and placed at 1.5 10^6 cells/ml in the bottom part of a 48-well modified Boyden chambers (Neuroprob Corp.), separated from the top part by gelatinized micro porous membrane (8 μm pore size, Nucleopor/Whatman). The inverted chambers are incubated for 1.5 h for the cells to attach. The chamber are then re-inverted, test substances added to the top part of the top well and incubated for additional 3h30 to allow migration. The chamber are disassembled, the membranes fixed, the cells visualized using Diff-Quick staining kit (Fisher). Then, the stained membranes are dried, mounted, and the cells migrated to the top part of membrane counted in 10 high-powered (400×) fields. MCDB131 containing 0.1% BSA, is used as a negative control and 10 ng/ml bFGF as a positive control. Each substance is tested in quadruplicate to allow statistical evaluation of the data within a single experiment. Each experiment is repeated 3 times to ensure the reproducibility.
The peptides were tested in vitro for their ability to block endothelial cell migration up the gradient of pro-angiogenic bFGF.

Substance | inhibition of VEGF-induced endothelial cell chemotaxis [1] | induction of endothelial cell apoptosis (HUVECs) | binding to and differentiation of Y-79 retinoblastoma cells [2] | dose at which maximal apoptosis effect is reached (HUVECs; cultured endothelial cells) [nM] | Positive comeas/total ([3]; peptide 10 μM) | Positive comeas/total ([3]; peptide 100 μM) | ability to block endothelial cell migration up the gradient of bFGF [4] | effect on mouse corneal neovascularization in vivo [3]
44-mer: PEDF peptide, residues 58-101 of SEQ ID NO:1, previously shown to have neurotrophic activity (VLLSPLSVATALSALSLGAEQRTESIIHRALYYDLISSPDIHGT; listed as Homo sapiens) [reference compound] | no inhibitory activity | no activity | bind to and induce differentiation |  |  |  |  | 
DPFFKVPVNKLAAAVSNFGYDLYRVRSSMSPTTN [34-mer] | inhibited |  |  | 100 |  |  |  | 
acetyl-ERTESIIHRAL-amide (Ac-ERTESIIHRAL-NH2) [ERT-S, PEDF residues 78-88] |  |  |  |  | 5/6 | 4/6 |  | 
acetyl-ERTESIIHRALYYDLIS-amide (Ac-ERTESIIHRALYYDLIS-NH2) [ERT-L, PEDF residues 78-94] |  | induced apoptosis |  |  | 2/6 | 1/5 | showed anti-angiogenic activity | blocked mouse corneal neovascularization
acetyl-LYYDLISSPDIHGTYKE-amide (Ac-LYYDLISSPDIHGTYKE-NH2) [PEDF residues 88-104] |  |  |  |  | 5/6 | 5/5 |  | 
acetyl-SSPDIHGTYKE-amide (Ac-SSPDIHGTYKE-NH2) [PEDF residues 94-104] |  |  |  |  | 6/6 | 4/4 |  | 
acetyl-TGALVEEEDPF-amide (Ac-TGALVEEEDPF-NH2) [PEDF residues 16-26] |  | induced apoptosis |  |  | 4/6 | 2/6 | showed anti-angiogenic activity | blocked mouse corneal neovascularization
